Experimental data: publication PMC11727410, “Identification of Chemical Constituents from Leaves and Stems of Alpinia oxyphylla: Potential Antioxidant and Tyrosinase Inhibitory Properties” (Antioxidants, 2024)
pIC50: −log10 of the molar value.

Experiments:
[1] = ABTS radical scavenging activity assay; settings: for Inhibitory rate (%), ABTS (Table S4): Table S4, concentration not given; for ABTS Inhibitory Rate (%): concentration 200 μM, "-" not active; for pIC50: converted from μg/mL
Experimental: The ABTS radical scavenging activity was examined as previously reported at room temperature (25 °C). Briefly, 160 μL sample in DMSO with different concentrations (800, 400, 200, 100, 50, 25 μM) was reacted with 480 μL ABTS reagent in a 1.5 mL centrifuge tube away from light for 6 min. Next, 200 μL of the mixture was taken out and transferred into a 96-well plate, which was used for measuring the absorbance by a microplate reader at 734 nm (ODsample). The control (ODcontrol) and blank (ODblank) were, respectively, established from the mixture solutions of the sample in DMSO and water and the mixture solution of DMSO and ABTS reagent. Trolox was the positive control, with the same concentration with compounds. The ABTS radical scavenging capacity was calculated as following:ABTS radical scavenging capacity (%) = [1 − (ODsample − ODcontrol)/ODblank] × 100%

[2] = DPPH radical scavenging activity assay; settings: for Inhibitory rate (%), DPPH (Table S4): Table S4, concentration not given; for DPPH Inhibitory Rate (%): concentration 200 μM
Experimental: The DPPH radical scavenging capacity was measured according to the following reference at room temperature (25 °C). Briefly, 320 μL sample in DMSO with different concentrations (400, 200, 100, 50, 25, 12.5 μM) was reacted with 320 μL DPPH reagent (0.1 mM) in 1.5 mL centrifuge tube away from light for 30 min. Next, 200 μL of the mixture was transferred into a 96-well plate, which was used for measuring the absorbance at 517 nm (ODsample). A control (ODcontrol) and blank (ODblank) were, respectively, established from the mixture solutions of the sample in DMSO and ethanol and the mixture solution of DMSO and DPPH reagent. Vitamin C was the positive control, with the same concentration as the compounds. The DPPH radical scavenging capacity was calculated according to the following:DPPH radical scavenging capacity (%) = [1 − (ODsample − ODcontrol)/ODblank] × 100%

| SMILES | ABTS IC50 ± SD [1] | Inhibitory rate (%), ABTS (Table S4) [1] | ABTS Inhibitory Rate (%) [1] | DPPH IC50 ± SD [2] | Inhibitory rate (%), DPPH (Table S4) [2] | DPPH Inhibitory Rate (%) [2] | pIC50 [1] | pIC50 ([2]; converted from μg/mL) |
| --- | --- | --- | --- | --- | --- | --- | --- | --- |
| OC[C@H]1O[C@@H](OCc2ccccc2)[C@H](O)[C@@H](O)[C@@H]1O [Compound 17, benzyl O-β-D-glucopyranoside] | – | – | – | – | 25.74 ± 1.49% | 25.74 ± 1.49 % | – | – |
| COc1cc(CC/C=C/C(=O)CCc2ccc(O)c(OC)c2)ccc1O [Compound 8, gingerenone A] | 36.06 ± 1.07 µg/mL | 90.81 ± 0.24% | 90.81 ± 0.24 % | – | 52.84 ± 2.47% | 52.84 ± 2.47 % | – | – |
| COc1ccc([C@H]2OC[C@H]3[C@@H]2CO[C@@H]3c2ccc(OC)c(O[C@@H]3O[C@H](CO)[C@@H](O)[C@H](O)[C@H]3O)c2)cc1O [Compound 22, 4,4′-dimethoxy-3′-hydroxy-7,9′:7′,9-diepoxylignan-3-O-β-D-glucopyranoside] | 33.32 ± 0.29 µg/mL | 91.51 ± 0.21% | 91.51 ± 0.21 % | – | 36.91 ± 2.04% | 36.91 ± 2.04 % | – | – |
| OC[C@H]1O[C@@H](Oc2ccccc2O)[C@H](O)[C@@H](O)[C@@H]1O [Compound 21, pyrocatechol 1-O-β-D-glucopyranoside] | 46.03 ± 0.27 µg/mL | 92.57 ± 0.27% | 92.57 ± 0.27% | ≥ 200 µg/mL | 31.39 ± 3.99% | 31.39 ± 3.99 % | 3.77 | – |
| COc1cc(O)ccc1O[C@@H]1O[C@H](CO)[C@@H](O)[C@H](O)[C@H]1O [Compound 20, 1,4-dihydroxyl-3-methoxyphenyl-4-O-β-D-glucopyranoside] | 8.20 ± 0.14 µg/mL | 92.80 ± 0.31% | 92.80 ± 0.31% | 23.21 ± 2.88 µg/mL | 84.06 ± 1.79% | 84.06 ± 1.79% | 4.57 | 4.11 |

The next lines start with results.

| ABTS IC50 ± SD [1] | SMILES | Inhibitory rate (%), ABTS (Table S4) [1] | ABTS Inhibitory Rate (%) [1] | DPPH IC50 ± SD [2] | Inhibitory rate (%), DPPH (Table S4) [2] | DPPH Inhibitory Rate (%) [2] | pIC50 [1] | pIC50 ([2]; converted from μg/mL) |
| --- | --- | --- | --- | --- | --- | --- | --- | --- |
| 8.55 ± 0.08 µg/mL | COc1ccc(-c2oc3cc(OC)cc(O)c3c(=O)c2O)cc1 [Compound 12, 3,5-dihydroxy-4′,7-dimethoxyflavone] | 75.07 ± 0.46% | 75.07 ± 0.46 % | 23.15 ± 3.24 µg/mL | 79.80 ± 2.02% | 79.80 ± 2.02 % | – | – |
| 20.81 ± 0.29 µg/mL | COc1cc(O)c2c(=O)cc(-c3ccccc3)oc2c1 [Compound 13, tectochrysin] | 91.93 ± 1.68% | 91.93 ± 1.68 % | – | 18.61 ± 0.62% | 18.61 ± 0.62 % | – | – |
| 6.20 ± 0.05 µg/mL | COC(=O)[C@H]1O[C@@H](Oc2c(-c3ccc(O)cc3)oc3cc(O)cc(O)c3c2=O)[C@H](O[C@@H]2O[C@@H](C)[C@H](O)[C@@H](O)[C@H]2O)[C@@H](O)[C@@H]1O [Compound 9, kaempferol 3-O-α-L-rhamnosyl-(1 → 2)-(β-D-glucuronatemethyl ester)] | 92.39 ± 0.27% | 92.39 ± 0.27% | – | 43.07 ± 3.99% | 43.07 ± 3.99 % | – | – |
